# “Also recorded” adds a separate entry of the source.
# Target: T1, HarmNPC2-1 (Helicoverpa armigera, UniProt A0A2W1BYA3)
# Test: Quenching of intrinsic tryptophan fluorescence
# Assay type: binding
# Conditions: Figure 2C
# Procedure: (§1) Emission fluorescence spectra were recorded on a Horiba scientific Fluoromax-4 spectrofluorometer at room temperature in a right-angle configuration, with a 1 cm light path quartz cuvette and 5 nm slits for both excitation and emission. Proteins were dissolved in 50 mM Tris–HCl buffer, pH 7.4, while ligands were added as 1 mM methanol solutions.
# T1 sequence (A0A2W1BYA3 entry or part of it): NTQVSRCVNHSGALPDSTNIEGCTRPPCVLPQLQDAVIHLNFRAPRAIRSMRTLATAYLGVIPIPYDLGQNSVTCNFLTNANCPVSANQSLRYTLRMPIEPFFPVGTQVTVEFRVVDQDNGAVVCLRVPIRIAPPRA
row,SMILES,quenching of intrinsic tryptophan fluorescence
1,Cc1cc2c(C(C)C)c(O)c(O)c(C=O)c2c(O)c1-c1c(C)cc2c(C(C)C)c(O)c(O)c(C=O)c2c1O [gossypol],quenching of intrinsic tryptophan fluorescence in a dose-dependent fashion
2,O=c1c(O)c(-c2ccc(O)c(O)c2)oc2cc(O)cc(O)c12 [quercetin],quenching of intrinsic tryptophan fluorescence in a dose-dependent fashion

# Target: T1, HarmNPC2-1
# Test: Competitive binding experiments (displacement of 1-NPN)
# Conditions: competitive binding with 1-NPN, ligand 0.5–16 μM
# Procedure: as §1
# The probe was excited at 337 nm and emission spectra were recorded between 380 and 450 nm. […] Data obtained with 1-NPN were analyzed with Prism software.
row,SMILES,binding / affinity for HarmNPC2-1 (in words)
1,COc1ccc([C@@H]2CC(=O)c3c(O)cc(O[C@@H]4O[C@H](CO[C@@H]5O[C@@H](C)[C@H](O)[C@@H](O)[C@H]5O)[C@@H](O)[C@H](O)[C@H]4O)cc3O2)cc1O [hesperidin],the worst
2,COc1cc(/C=C/C=O)ccc1O [coniferyl aldehyde],moderate binding
3,Cc1cc2c(C(C)C)c(O)c(O)c(C=O)c2c(O)c1-c1c(C)cc2c(C(C)C)c(O)c(O)c(C=O)c2c1O [gossypol],best ligand; also recorded: the best
4,C=CCc1ccc(O)c(OC)c1 [eugenol],failed to bind
5,OCc1ccc2c(c1)OCO2 [piperonyl alcohol],failed to bind
6,COc1cc(CNC(=O)CCCC/C=C/C(C)C)ccc1O [capsaicin],failed to bind
7,O=C/C=C/c1ccccc1 [cinnamaldehyde],failed to bind
8,COc1cc(C=O)ccc1O [vanillin],failed to bind

# Same assay, conditions: concentrations up to 16 μM; protein and 1-NPN both 2 μM
row,SMILES,displacing the fluorescent probe from the complex
1,CCCC/C=C\CCCCCCCCCCO [(Z)-11-hexadecenol],ineffective
2,CCCC/C=C\CCCCCCCCCC=O [(Z)-11-hexadecenal],ineffective
3,C[C@]12CC[C@@H]3c4ccc(O)cc4CC[C@H]3[C@@H]1CC[C@@H]2O [β-estradiol],ineffective
4,O=CCc1ccccc1 [2-phenylacetaldehyde],ineffective
5,O=Cc1ccccc1 [benzaldehyde],ineffective
6,C=C(C)C1CC=C(C)C(=O)C1 (centres unmarked) [carvone],ineffective
7,Cc1ccc(C=O)cc1 [4-methyl benzaldehyde],ineffective
8,c1ccc2[nH]ccc2c1 [indole],ineffective
9,COC(=O)C=Cc1ccccc1 [methyl cinnamate],ineffective
10,O=Cc1ccccc1O [2-hydroxy benzaldehyde],ineffective
11,C=CCc1ccc(O)c(OC)c1 [eugenol],ineffective
12,OCc1ccc2c(c1)OCO2 [piperonyl alcohol],ineffective
13,COc1ccc(C=O)cc1 [4-methoxy benzaldehyde],ineffective
14,COc1cc(CNC(=O)CCCC/C=C/C(C)C)ccc1O [capsaicin],ineffective
15,O=C/C=C/c1ccccc1 [cinnamaldehyde],ineffective

# Results, then the molecule that gave them:
row,displacing the fluorescent probe from the complex,SMILES
1,ineffective,CC(C)=CCC/C(C)=C/CC/C(C)=C/CO [farnesol]
2,ineffective,CCCCCCCCCC(=O)O [decanoic acid]
3,ineffective,CCCCCC/C=C\CCCCCCCC=O [(Z)-9-hexadecenal]
4,ineffective,CC/C=C\CC1C(=O)CCC1CC(=O)OC (centres unmarked) [methyl jasmonate]
5,ineffective,CCCCCCCO [1-heptanol]
6,ineffective,CCCC(O)CC (centres unmarked) [3-hexanol]
7,ineffective,CC(=O)/C=C/C1=C(C)CCCC1(C)C [β-ionone]
8,ineffective,CC/C=C\CCO [Z3-hexen-1-ol]
9,ineffective,CCCCCCCC(=O)O [octanoic acid]
10,ineffective,C=CC(O)CCCCC (centres unmarked) [1-octen-3-ol]
11,ineffective,CCCCCCCC=O [octanal]
12,ineffective,CC(C)=CCC[C@@H](C)CC=O (racemic) [citronellal]
13,ineffective,CCCC/C=C\CCCCCCCCCCOC(C)=O [(Z)-11-hexadecenyl acetate]
14,ineffective,"CCCC=CC=CC=O [2,4-octadienal]"
15,ineffective,CC1=C(C=O)C(C)(C)CC=C1 [safranal]
16,ineffective,CCCCCCCCCC=O [decanal]
17,ineffective,CCCCC(C)O (centres unmarked) [2-hexanol]
18,ineffective,COC(=O)CC(C)CCC=C(C)C (centres unmarked) [citronellic acid methyl ester]
19,ineffective,COc1cc(C=O)ccc1O [vanillin]

# — article PMC5810286, “Niemann-Pick C2 Proteins: A New Function for an Old Family” (Frontiers in Physiology, 2018)
